Drawing on ChEMBL document CHEMBL1147064 (Proc Natl Acad Sci U S A, 2007), this text covers IC50 and Activity for three compounds.

For data set [1], the target named is Botulinum neurotoxin type A (Clostridium botulinum, UniProt P0DPI0).
Data set [2] in a line: Toxicity against mouse Neuro2a cells at =>5 uM. The format is cell-based. The note with it: n2a.

Botulinum neurotoxin type A, sequence (P0DPI0 2-448 limits assumed): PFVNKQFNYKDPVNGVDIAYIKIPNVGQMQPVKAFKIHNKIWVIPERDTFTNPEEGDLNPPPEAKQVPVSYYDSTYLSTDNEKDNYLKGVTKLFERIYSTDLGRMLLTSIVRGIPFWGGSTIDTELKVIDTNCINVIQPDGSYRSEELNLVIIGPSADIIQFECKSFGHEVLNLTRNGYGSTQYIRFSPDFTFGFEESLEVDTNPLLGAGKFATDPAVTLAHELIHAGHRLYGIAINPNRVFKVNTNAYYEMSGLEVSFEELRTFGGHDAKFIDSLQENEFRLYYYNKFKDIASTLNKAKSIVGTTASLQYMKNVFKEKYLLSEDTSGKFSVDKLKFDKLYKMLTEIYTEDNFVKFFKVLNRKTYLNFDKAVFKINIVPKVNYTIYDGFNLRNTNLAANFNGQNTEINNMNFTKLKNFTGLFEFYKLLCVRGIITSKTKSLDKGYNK

The term IC50 denotes the concentration needed to halve the response being measured. A low value points to inhibition by little substance. As to `CCC1CN(C(=O)/C=C/c2ccccc2)CC(=O)N1Cc1ccc(C)cc1` (stereo not drawn), in data set [1], the IC50 turned out to be 12.5 µM.

Consider `COc1ccc(CCNC(=O)CN(CC(=O)N[C@H]2C[C@@H]2c2ccccc2)C(=O)Cn2c(C(=O)N[C@H]3CCCC[C@@H]3NC(=O)c3cc4ccccc4n3CC(=O)N(CC(=O)NCCc3ccc(OC)cc3)CC(=O)N[C@@H]3C[C@H]3c3ccccc3)cc3ccccc32)cc1`, for which inhibition in data set [1] was half-maximal at 7.6 µM (IC50).

For `O=C(/C=C/c1ccc(Cl)cc1Cl)NO` [CINNAMIC ACID HYDROXAMATE], the Activity result in data set [2] is on record as “Toxic”.
